Blank lines part the entries; values can stand above or below the compound they belong to.
Assays:
[1] = system: leukemic cell lines (KG-1, Kasumi-1 and HL-60); assay: dose/response analysis of leukemic cell lines to idarubicin in the open reversed microwell system; type: cell-based; conditions: leukemic cell line (one of KG-1, Kasumi-1, HL-60), FIG. 9C
Jurkat cells = assay: calcium signal (Fluo-4) of Jurkat cells in open microwells after stimulation; type: cell-based, human; conditions: Fluo-4 labeled Jurkat cells
Description: Cells from the Jurkat cell line (human Leukemic T cells) were obtained from ATCC and cultured in RPMI 1640 medium supplemented with 10% inactivated FBS medium, 10 mM Hepes, 2 mM Ultraglutamine and 1 mM sodium pyruvate, 1% Penicillin/Streptomycin in 25 cm^2 flasks at 37° C. and 5% CO2.
For the assay in open microwells according to the present invention, Jurkat cells were labeled with Fluo-4 20 μM in HBSS, centrifuged and resuspended in serum-free medium (RPMI 1640 with 25 mM Hepes or HBSS) at a concentration of 1.6×10^6 cells/mL in 1.5 mL Eppendorf tubes used as input reservoirs for the open reversed microwell system. Subsequent to the deposition of Jurkat cells in the microwells (approximately 1-10 cells per microwell) and washing the channels with HBSS, the solutions containing Ionomycin (2 μg/mL) or OKT3 (10 μg/mL) are made to flow into specific microchannels of the open microwell system via peristaltic pump. The images were acquired by a camera connected to the microscope at a distance of 1 minute and processed by software developed in LabView, quantifying the dynamic performance of the same signal on each sample cell.

SU-DHL-4 cancer cells = assay: open well assay of Rituximab on SU-DHL-4 lymphoma cells (Calcein AM / PI, time-lapse); type: cell-based; conditions: Rituximab 10 μg/mL, hS 1%, PI 5 μM; images up to 60 min; versus CTRL; FIG. 11A
Description: Cells: SU-DHL-4 lymphoma cells and Raji cells were used (ATCC CCL-86). 3·10^5 cells/mL were cultured in RPMI medium supplemented with 10% FBS, 1% […]/streptomycin at 37° C., 95% RH, 5% CO2. The cells were amplified, dividing them when in confluence. PBMC were isolated from blood by centrifugation in gradient. Whole blood from healthy donors was collected into tubes treated with anticoagulants according to the directive “ethical principles and guidelines for the protection of humans in research”. Isolated PBMC were washed twice with 10 mL cold HBSS after lysis of red blood cells. The concentration of cells and their viability was determined with Trypan Blue on haemocytometer. The concentration was adjusted to 1 million cells/mL.
Different batches of SU-DHL-4 or Raji cells were harvested at the peak of their growth, washed with PBS and counted in a hemocytometer with Trypan Blue. The cell concentration was adjusted to 1 million cells/mL and they were labeled with Calcein AM (CAM) 5 nM for flow cytometry and 250 nM for the assay according to the present invention. […] Cell viability was finally assessed by PI and flow cytometry. […]
The images were acquired brightfield (BF) to evaluate the morphological characteristics and then in fluorescence to evaluate the signal in DAPI bands (ex: 360/40 nm, 460/50 nm), FITC (ex: 480/30 nm, em: 535/40 nm), TRITC (ex: 540/25 nm, em: 605/55 nm). […]

IC50 ([1]; response level: resistant): 0.213 µM
IC50 ([1]; response level: sensitive on the average): 0.0218 µM
IC50 ([1]; response level: sensitive): 0.0049 µM
Compound: CC(=O)[C@]1(O)Cc2c(O)c3c(c(O)c2[C@@H](O[C@H]2C[C@H](N)[C@H](O)[C@H](C)O2)C1)C(=O)c1ccccc1C3=O [idarubicin]

Compound: OKT3: monoclonal antibody purified from OKT3 hybridoma culture supernatant
increase of the signal peak compared to the baseline value (Jurkat cells; OKT3 10 μg/mL, average of a series of 3 experiments): 178%+/−90%

Compound: RTX: monoclonal antibody Rituximab
dead cells (PI, TRITC channel) in time-lapse images (SU-DHL-4 cancer cells): present only at T2 and T3 in the RTX group

Compound: C[C@H](CCC(=O)O)C[C@H](C)C[C@H](C)C(=O)/C=C(\O)[C@H](C)C[C@H](C)C/C=C/[C@@H](C)[C@@H](O)[C@@H](C)[C@@H](O)C[C@@H]1CC[C@@](C)([C@H]2CC[C@@](C)([C@@H](C)O)O2)O1 [Ionomycin]
average increase of the signal with respect to the baseline (Jurkat cells; Ionomycin 2 μg/mL, series of 10 experiments): 193%+/−139%

Reference: patent US10569270B2, “Screening kit and method” (CELLPLY S.R.L., priority 2016, dated 2020)
